{
  "source": "patent US6552060B1",
  "about": "“Asymmetric disulfides and methods of using same” (Prolx Pharmaceuticals, Inc., priority 1997, dated 2003)",
  "molecules": {"B1": {"name": "thioredoxin: low molecular weight redox protein; human recombinant thioredoxin stimulates proliferation of cancer cells (protein, UniProt P10599 2-105, looked up)", "Thioredoxin": "VKQIESKTAFQEALDAAGDKLVVVDFSATWCGPCKMIKPFFHSLSEKYSNVIFLEVDVDDCQDVASECEVKCMPTFQFFKKGQKVGEFSGANKEKLEATINELV"}},
  "key": {"[1]": {"target": "T1, Human placental thioredoxin reductase (Homo sapiens, UniProt Q16881)", "T1 sequence (Q16881 1-499 isoform Q16881-5)": "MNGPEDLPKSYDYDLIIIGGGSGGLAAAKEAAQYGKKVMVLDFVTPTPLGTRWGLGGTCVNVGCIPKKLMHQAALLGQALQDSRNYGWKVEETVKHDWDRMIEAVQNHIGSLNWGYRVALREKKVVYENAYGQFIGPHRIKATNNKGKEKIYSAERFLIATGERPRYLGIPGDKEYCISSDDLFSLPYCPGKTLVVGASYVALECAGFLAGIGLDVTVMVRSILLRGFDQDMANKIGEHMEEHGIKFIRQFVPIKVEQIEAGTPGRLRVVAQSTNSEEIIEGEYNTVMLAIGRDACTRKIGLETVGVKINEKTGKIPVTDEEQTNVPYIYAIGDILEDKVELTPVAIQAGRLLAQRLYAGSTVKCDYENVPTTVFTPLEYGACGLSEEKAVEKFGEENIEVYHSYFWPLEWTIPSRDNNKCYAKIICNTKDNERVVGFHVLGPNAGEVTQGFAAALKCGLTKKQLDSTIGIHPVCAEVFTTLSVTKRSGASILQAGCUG", "assay": "NADPH oxidation by thioredoxin reductase with the disulfide as substrate, or with thioredoxin and insulin as final electron acceptor and the disulfide as inhibitor", "assay_type": "biochemical", "settings": "for Type: behaviour towards thioredoxin reductase: substrate, inhibitor or non-reactive", "description": "The thioredoxin was stored at −20° C. with 5 mM dithiothreitol which was removed before use with a desalting column (PD10, Pharmacia, Uppsala, Sweden).\nAsymmetrical 2-imidazolyl disulfides which were used as a basis for further development and identified below in Table 1. In Table I, NADPH oxidation by thioredoxin reductase was measured spectrophotometrically as described with either the disulfide as the electron acceptor (substrate) or with thioredoxin and insulin as the final electron acceptor and the disulfide as inhibitors. The reactions were initiated by the addition of NADPH. Km and Ki values were calculated from Lineweaver-Burk plots of the data.\nThe compounds of Table 1 were synthesized by a method described previously and recrystallized prior to use. Stock solutions of the disulfides were prepared at 10 mM in ethanol and diluted in aqueous media just prior to use. N-ethylmaleimide (NEM), diamide, and DTT were obtained from Sigma Chemical Co. (St. Louis, Mo.). All other chemicals used were of reagent grade. […]"}, "[2]": {"test_system": "MCF-7 human breast cancer cells", "assay": "Thioredoxin and serum dependent growth of MCF-7 cells", "assay_type": "cell-based", "settings": "48 hr", "description": "MCF-7 human breast cancer cells were obtained from the American Tissue Type Collection (Rockville, Md.). Cultures were maintained in Dulbecco's Modified Eagles' medium (DMEM) containing 10% fetal bovine serum (fbs) at 37° C. and 6% CO2, and passaged at 75% confluence using 0.025% trypsin. The effect of the disulfides on cell proliferation was measured as previously described and incorporated herein by reference. Briefly, 10^5 cells were plated in a 35 mm culture dish in the above medium and, after attachment for 24 hr, their growth was arrested by changing to DMEM with 0.5% fbs for 48 hr. The medium was then replaced with DMEM containing 10% fbs or 1 μM thioredoxin, with or without the disulfides. The cell number was measured 2 days later following detachment with 0.025% trypsin using a hemocytometer.\nThe effects of the disulfides on the growth of human MCF-7 breast cancer cells is shown graphically in FIG. 1. […] The cells were growth arrested in medium with 0.5% serum for 48 hr at which time there were 0.2×10^6 cells. DMEM with 1 mM thioredoxin (open symbols) or 10% serum (filled symbols) was added and the increase in cell number over a 48 hr period was measured in the presence of various concentrations of the disulfides. Values are means±SEM. n=6."}, "in vitro": {"assay": "in vitro", "settings": "mouse"}, "human primary tumors": {"test_system": "human primary tumors", "assay": "Growth of human primary tumors in soft agarose", "assay_type": "cell-based"}, "[3]": {"test_system": "MCF-7 breast cancer cells in scid mice", "assay": "Activity against MCF-7 breast cancer cells in scid mice", "assay_type": "in vivo", "settings": "for T/C %: tumor volume treated versus control at day 28", "from_the_text": "This is shown below in Table II."}, "HL60 cells": {"test_system": "HL60 cells", "assay": "Induction of apoptosis in HL60 cells", "assay_type": "cell-based, human", "settings": "within 8 h of exposure, same concentration"}, "[4]": {"test_system": "thioredoxin transfected MCF-7 cells", "assay": "Apoptosis in MCF-7 cells transfected with human thioredoxin cDNA", "settings": "30 μM, apoptosis measured 48 h later"}, "thioredoxin": {"target": "T2, thioredoxin (Homo sapiens, UniProt P10599)", "T2 construct": "made in house; host or cells: E. coli", "T2 sequence (P10599 1-105)": "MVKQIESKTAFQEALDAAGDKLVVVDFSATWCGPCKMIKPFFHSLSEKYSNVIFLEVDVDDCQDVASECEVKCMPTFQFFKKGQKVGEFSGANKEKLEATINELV", "assay": "Direct reaction between thioredoxin and disulfides, release of 2-mercaptoimidazole at 252 nm", "assay_type": "biochemical", "settings": "thioredoxin 2 μM, disulfide 200 μM, pH 7.4, room temperature", "description": "The effects of the assymetric disulfides of Table I on the reduction of thioredoxin and C73S by thioredoxin reductase was measured spectrophotometrically by following the reduction of NADPH at 339 nm. […] In some studies the disulfides at 3.5 μM were preincubated for up to 24 hr at room temperature in air with 0.7 μM thioredoxin or C73S in 100 μM HEPES buffer, pH 7.6, and 5 mM EDTA, before measuring the reduction of the thioredoxin or C73S by thioredoxin reductase with 1 mg/ml bovine insulin as the final electron acceptor. The ability of the disulfides to act as substrates for glutathione reductase was measured by following the reduction of NADPH using an incubation mixture containing 0.15 μg/ml glutathione reductase, 140 μM NADPH, 100 mM HEPES buffer, pH 7.6, 5 mM EDTA and the disulfides at 500 μM. The ability of the disulfides to act as inhibitors of glutathione reductase was measured using oxidized glutathione, 50 μM, as the final electron acceptor. In both cases the reaction was initiated by the addition of NADPH. Thioredoxin or C32S/C35S, 2 μM, in 0.1 M sodium phosphate buffer, pH 7.4, was reacted with the disulfides at a concentration of 200 μM at room temperature. This direct reaction between thioredoxin and the disulfides was followed spectrophotometrically as the increase in absorbance at 252 nm due to release of 2-mercaptoimidazole. Initial reaction rates were measured in triplicate.\nDue to the fact that the disulfides inhibited thioredoxin-dependent cell growth at concentrations below those required to inhibit thioredoxin reductase, a direct effect of the disulfides on thioredoxin was looked for. The initial reaction between the disulfides and thioredoxin was measured spectrophotometrically (FIGS. 2A and 2B). […] This is the order of reactivity which be predicted from the steric and electronic nature of the disulfides thioalkylating groups."}, "TR/Trx": {"target": "T3, TR/Trx (Homo sapiens, UniProt Q16881)", "T3 sequence (Q16881 1-499 isoform Q16881-5)": "T1 sequence (Q16881 1-499 isoform Q16881-5)", "assay": "Thioredoxin dependent reduction of insulin by human thioredoxin reductase and NADPH (IC50 TR/Trx, 96 well)", "assay_type": "biochemical", "from_the_text": "When referring to the particular system being analyzed IC50 is typically followed by an abbreviation referring to that system (i.e., IC50 TR/Trx for the above described thioredoxin redox system which is comprised of thioredoxin reductase and thioredoxin).\nA second plate was used for the assessment of biological activity or as a biological screen. Aliquots of disulfides dissolved in DMSO, were be transferred into 96 well plates. The assay to assess their ability to inhibit thioredoxin reductase measures the thioredoxin dependent reduction of insulin by human thioredoxin reductase and NADPH. The effects of the disulfides on the reduction of Trx by TR were measured spectrophotometrically by following the reduction of NADPH at 339 nm with insulin as the final electron acceptor in a buffered mixture of TR, Trx, NADPH and insulin."}, "[5]": {"test_system": "EMT6 mouse mammary tumor cells", "settings": "48 h"}, "[6]": {"test_system": "MCF-7 breast cancer cells", "settings": "read-out: EC50 for growth stimulation; cited from earlier work"}, "[7]": {"settings": "MCF7, in the presence of 1 μM thioredoxin, read-out: IC50 thioredoxin dependent proliferation"}, "[8]": {"settings": "MCF7, with 10% fetal bovine serum, read-out: IC50 serum dependent growth"}},
  "note": "Several values for one entry are separate records, joined by “and”; a condition that tells them apart may be missing. Equal entries are not always repeated. Entries after “also recorded” stand apart in the source; their conditions may differ. Where two headings read alike, the source gives them in different places. Marks after values point to notes of the source that are not given here.",
  "data": [
    {"molecule": "CCC(C)SSc1ncc[nH]1", "note": "(centres unmarked) [IV-2, 1-methylpropyl 2-imidazolyl disulfide]", "values": [
      {"measurement": "Type", "setting": "[1]", "result": "competitive inhibitors; also recorded: inhibitor"},
      {"measurement": "IC50", "setting": "[2]; [7]", "result": 1.2, "unit": "µM"},
      {"measurement": "IC50", "setting": "[2]; [8]", "result": 3.2, "unit": "µM"},
      {"measurement": "IC50 at 48 h", "setting": "in vitro", "result": 19, "unit": "µM"},
      {"measurement": "growth of human primary tumors in soft agarose", "setting": "human primary tumors", "result": "inhibited"},
      {"measurement": "T/C %", "setting": "[3]; 5 mg/kg/day i.p. for 14 days", "result": 56.7, "unit": "%"},
      {"measurement": "T/C %", "setting": "[3]; 10 mg/kg/day i.p. for 14 days", "result": "45.9^c %"},
      {"measurement": "T/C %", "setting": "[3]; 15 mg/kg/day i.p. for 14 days", "result": "2.3^c %"},
      {"measurement": "tumor inhibition", "setting": "[3]; MCF-7 tumor system", "result": 98, "unit": "%"},
      {"measurement": "apoptosis of HL60 cells", "setting": "HL60 cells", "result": "stimulated to apoptose"},
      {"measurement": "apoptosis induced in thioredoxin transfected cells", "setting": "[4]", "result": "became resistant to apoptosis"},
      {"measurement": "initial rate for reaction between thioredoxin and disulfide", "setting": "thioredoxin", "result": "2.8e-07", "unit": "M/s"}
    ]},
    {"molecule": "CCCCSSc1ncc[nH]1", "note": "[III-2, n-butyl 2-imidazolyl disulfide]", "values": [
      {"measurement": "Type", "setting": "[1]", "result": "substrate"},
      {"measurement": "Km", "setting": "[1]; disulfide as substrate for reduction by thioredoxin reductase, Lineweaver-Burk", "result": "43 µM and 43.1 µM"},
      {"measurement": "IC50", "setting": "[2]; [7]", "result": 0.2, "unit": "µM"},
      {"measurement": "IC50", "setting": "[2]; [8]", "result": 35, "unit": "µM"},
      {"measurement": "IC50 at 48 h", "setting": "in vitro", "result": 12, "unit": "µM"},
      {"measurement": "IC50", "setting": "TR/Trx; Table 4, read-out: Disulfide inhibition of TR/Trx (IC50 TR/Trx) (converted)", "result": 117, "unit": "µM"},
      {"measurement": "Toxicity dead/injected", "setting": "[3]; 6 mg/kg/day i.p. for 14 days", "result": "0/8"},
      {"measurement": "T/C %", "setting": "[3]; 6 mg/kg/day i.p. for 14 days", "result": "48.9^c %"},
      {"measurement": "Toxicity dead/injected", "setting": "[3]; 12 mg/kg/day i.p. for 14 days", "result": "0/8"},
      {"measurement": "T/C %", "setting": "[3]; 12 mg/kg/day i.p. for 14 days", "result": "56.6^c %"},
      {"measurement": "Toxicity dead/injected", "setting": "[3]; 18 mg/kg/day i.p. for 14 days", "result": "1/8"},
      {"measurement": "T/C %", "setting": "[3]; 18 mg/kg/day i.p. for 14 days", "result": 100.2, "unit": "%"},
      {"measurement": "apoptosis of HL60 cells", "setting": "HL60 cells", "result": "stimulated to apoptose"},
      {"measurement": "initial rate for reaction between thioredoxin and disulfide", "setting": "thioredoxin", "result": "7.3e-07", "unit": "M/s"}
    ]},
    {"molecule": "CCC(C)SSc1ncnc2[nH]cnc12", "note": "(centres unmarked) [Compound F-7]", "values": [
      {"measurement": "IC50", "setting": "[5]", "result": "> 180", "unit": "µM"},
      {"measurement": "IC50 at 48 h", "setting": "in vitro", "result": "> 180", "unit": "µM"},
      {"measurement": "IC50", "setting": "TR/Trx; Table 3, read-out: IC50 TR/Trx (converted)", "result": 95.7, "unit": "µM"}
    ]},
    {"molecule": "CC(C)SSCc1ccccc1", "note": "[Compound E-19]", "values": [
      {"measurement": "IC50", "setting": "[5]", "result": 25, "unit": "µM"},
      {"measurement": "IC50 at 48 h", "setting": "in vitro", "result": 42, "unit": "µM"}
    ]},
    {"molecule": "B1", "values": [
      {"measurement": "EC50", "setting": "[6]", "result": 0.35, "unit": "µM"}
    ]}
  ]
}
